Experimental data as given in ChEMBL document CHEMBL1147156, “Structure-based design and synthesis of N(omega)-nitro-L-arginine-containing peptidomimetics as selective inhibitors of neuronal nitric oxide synthase. Displacement of the heme structural water” (J Med Chem, 2007).

Key:
[1] = Inhibition of bovine recombinant neuronal NOS by hemoglobin capture assay; design: species or system Bos taurus
Nitric oxide synthase 3 = molecular target: T1, Nitric oxide synthase 3 (Bos taurus, UniProt P29473); test: Inhibition of bovine recombinant endothelial NOS by hemoglobin capture assay
T1 sequence (P29473 whole entry): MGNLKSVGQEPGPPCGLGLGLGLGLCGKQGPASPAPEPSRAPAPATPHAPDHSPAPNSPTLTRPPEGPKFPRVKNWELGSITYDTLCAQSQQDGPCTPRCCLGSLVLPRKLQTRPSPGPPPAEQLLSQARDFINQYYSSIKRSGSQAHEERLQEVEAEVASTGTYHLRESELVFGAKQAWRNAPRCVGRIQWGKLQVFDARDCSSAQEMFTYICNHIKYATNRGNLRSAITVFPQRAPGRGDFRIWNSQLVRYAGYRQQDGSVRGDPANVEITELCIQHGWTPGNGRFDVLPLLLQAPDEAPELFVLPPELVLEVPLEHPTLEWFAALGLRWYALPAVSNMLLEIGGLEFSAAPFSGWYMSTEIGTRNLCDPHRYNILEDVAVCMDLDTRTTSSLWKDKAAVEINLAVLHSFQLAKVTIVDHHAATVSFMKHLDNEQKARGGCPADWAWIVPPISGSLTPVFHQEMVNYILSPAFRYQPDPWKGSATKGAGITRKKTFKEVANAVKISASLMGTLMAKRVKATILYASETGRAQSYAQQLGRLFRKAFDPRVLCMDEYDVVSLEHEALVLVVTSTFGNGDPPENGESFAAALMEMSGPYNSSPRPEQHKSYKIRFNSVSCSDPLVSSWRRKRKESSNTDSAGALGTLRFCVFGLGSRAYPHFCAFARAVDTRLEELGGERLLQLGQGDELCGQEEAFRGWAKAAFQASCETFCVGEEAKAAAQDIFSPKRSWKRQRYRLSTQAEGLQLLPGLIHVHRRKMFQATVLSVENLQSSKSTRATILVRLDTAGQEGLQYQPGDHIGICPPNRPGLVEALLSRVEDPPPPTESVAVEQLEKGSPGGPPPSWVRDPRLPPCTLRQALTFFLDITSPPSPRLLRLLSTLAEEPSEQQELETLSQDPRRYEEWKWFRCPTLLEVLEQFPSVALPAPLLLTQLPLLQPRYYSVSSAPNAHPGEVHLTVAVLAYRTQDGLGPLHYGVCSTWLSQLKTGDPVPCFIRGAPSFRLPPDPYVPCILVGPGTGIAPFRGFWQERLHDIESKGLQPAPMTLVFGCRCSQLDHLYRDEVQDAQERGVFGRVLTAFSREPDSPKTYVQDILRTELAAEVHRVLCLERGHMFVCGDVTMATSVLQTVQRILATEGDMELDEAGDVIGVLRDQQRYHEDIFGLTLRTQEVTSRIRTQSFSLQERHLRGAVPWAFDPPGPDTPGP

[2] = molecular target: T2, Nitric oxide synthase, inducible (Mus musculus, UniProt P29477); test: Inhibition of mouse recombinant inducible NOS by hemoglobin capture assay
T2 sequence (P29477 whole entry): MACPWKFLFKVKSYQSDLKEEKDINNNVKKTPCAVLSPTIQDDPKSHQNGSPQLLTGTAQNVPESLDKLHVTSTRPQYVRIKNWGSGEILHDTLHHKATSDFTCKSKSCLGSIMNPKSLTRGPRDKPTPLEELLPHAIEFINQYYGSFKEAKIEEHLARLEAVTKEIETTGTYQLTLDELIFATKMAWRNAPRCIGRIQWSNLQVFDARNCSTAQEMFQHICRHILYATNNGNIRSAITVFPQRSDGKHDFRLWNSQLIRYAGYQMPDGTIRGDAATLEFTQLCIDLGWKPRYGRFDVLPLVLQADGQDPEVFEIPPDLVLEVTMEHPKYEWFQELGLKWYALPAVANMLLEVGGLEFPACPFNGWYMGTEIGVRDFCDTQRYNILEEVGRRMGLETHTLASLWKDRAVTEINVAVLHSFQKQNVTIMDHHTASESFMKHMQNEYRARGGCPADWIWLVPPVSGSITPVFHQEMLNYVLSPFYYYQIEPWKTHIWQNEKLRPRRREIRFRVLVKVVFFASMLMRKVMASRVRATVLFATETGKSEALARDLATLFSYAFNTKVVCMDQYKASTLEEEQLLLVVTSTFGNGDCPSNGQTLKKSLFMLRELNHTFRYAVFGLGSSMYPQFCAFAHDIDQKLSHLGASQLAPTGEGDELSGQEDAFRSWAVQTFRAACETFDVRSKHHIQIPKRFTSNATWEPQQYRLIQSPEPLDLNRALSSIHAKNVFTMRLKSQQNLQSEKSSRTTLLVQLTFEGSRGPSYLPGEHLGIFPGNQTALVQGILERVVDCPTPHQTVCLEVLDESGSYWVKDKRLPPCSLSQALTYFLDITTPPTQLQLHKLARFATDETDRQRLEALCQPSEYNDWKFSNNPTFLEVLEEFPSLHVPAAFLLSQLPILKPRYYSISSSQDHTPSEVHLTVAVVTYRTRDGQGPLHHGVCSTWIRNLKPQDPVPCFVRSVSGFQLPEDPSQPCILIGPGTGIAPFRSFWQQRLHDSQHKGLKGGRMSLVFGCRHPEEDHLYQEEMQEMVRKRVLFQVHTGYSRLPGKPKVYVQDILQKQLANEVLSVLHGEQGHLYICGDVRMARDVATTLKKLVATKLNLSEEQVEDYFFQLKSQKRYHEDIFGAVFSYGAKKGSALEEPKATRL

Row | Structure (SMILES) | Ki [1] | Ki (Nitric oxide synthase 3) | Ki [2]
1 | NC(=O)[C@@H]1C[C@@H](NC(=O)[C@@H](N)CCC/N=C(\N)N[N+](=O)[O-])CN1 | 0.33 µM |  | 
2 | N=C(NCCC[C@H](N)CN(N)CCN)N[N+](=O)[O-] | 0.56 µM | 103 µM | 37 µM
3 | N=C(NCCC[C@H](N)CN(O)CCN)N[N+](=O)[O-] | 0.12 µM | 73 µM | 16 µM
4 | N=C(NCCC[C@H](N)C(=O)N(O)[C@H]1CN[C@H](C(N)=O)C1)N[N+](=O)[O-] | 0.31 µM | 35 µM | 16 µM
5 | N=C(NCCC[C@H](N)C(=O)O)N[N+](=O)[O-] [NITROARGININE] |  |  | 4.28 µM
